Tests used:
lapin = assay: Chronic toxicity in the rabbit, ocular instillation, 13 weeks; assay type: in vivo; conditions: instillation oculaire, 4 doses par jour, solution à 0,9 g (pour 100 ml), 13 semaines
[1] = Solubility (description of the product); assay type: physicochemical
chien = assay: Chronic toxicity in the dog, oral, 13 weeks; assay type: in vivo; conditions: 35 mg/Kg/jour, 13 semaines

solubility in water ([1]; eau): insoluble dans l'eau
solubility in organic solvents ([1]; méthanol, chloroforme, acétone, benzène): soluble dans divers solvants organique
Structure (SMILES): CCCCCCCCCCCCOCCCN [Lopa, amino-1 dodécyloxy-3 propane]
toxicité locale et/ou systématique (lapin): aucune toxicité locale et/ou systématique
toxicité locale et/ou systématique (chien): aucune toxicité locale et/ou systématique

— patent EP0067084B1, “Eye-lotion compositions for the treatment of conjunctivitis and keratitis” (Laboratoires P.O.S. Société Anonyme dite:, priority 1981, dated 1982)
